Measurements as given in patent publication US20050101595A1, “N-containing cycloalkyl-substituted amino-thiazole derivatives and pharmaceutical compositions for inhibiting cell proliferation and methods for their use” (PFIZER INC., priority 2003, published 2005).
Counter-ions that a name gives are not always drawn. Like-named read-outs stand apart in the source and are kept apart here.

Columns and labels:
HCT-116 cell line = assay: Inhibition of cell growth, tetrazolium salt (MTT) assay; type: cell-based; details: for IC50: Homo sapiens, HCT-116, 120 h, MTT, three to five days, read-out: HCT-116 IC50; for HCT-116 % Inhibition at 0.25 μM: 0.25 μM compound
Method in brief: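 HCT-116 cells in McCoy's 5A medium received compound 4 h after plating (0.5% v/v DMSO) and were incubated three to five days at 37° C, 5% CO2. MTT (0.2 mg/mL final) then added for 4 h; DMSO-solubilized formazan read at 540 nm against 0.5% DMSO-treated controls.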

[1] = biological target: human CDK4 and genetically truncated (1-264) cyclin D3 (Homo sapiens, UniProt P11802); assay: Inhibition of CDK4/Cyclin D Retinoblastoma Kinase Activity; type: biochemical; details: for Ki: apparent Ki, CDK4/truncated cyclin D3, Rb fragment substrate, 25 μM ATP
Sequence of human CDK4 and genetically truncated (1-264) cyclin D3 (P11802 whole entry, the tested form may be a part): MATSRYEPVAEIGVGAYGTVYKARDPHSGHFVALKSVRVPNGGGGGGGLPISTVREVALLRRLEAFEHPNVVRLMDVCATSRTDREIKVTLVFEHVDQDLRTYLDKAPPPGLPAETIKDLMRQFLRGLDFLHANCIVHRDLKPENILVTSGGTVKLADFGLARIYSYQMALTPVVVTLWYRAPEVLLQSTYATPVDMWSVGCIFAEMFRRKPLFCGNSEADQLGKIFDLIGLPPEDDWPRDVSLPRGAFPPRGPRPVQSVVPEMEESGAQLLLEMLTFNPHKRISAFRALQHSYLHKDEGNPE
Sequence of human CDK4 and genetically truncated (1-264) cyclin D3 (P30281 1-264 partner): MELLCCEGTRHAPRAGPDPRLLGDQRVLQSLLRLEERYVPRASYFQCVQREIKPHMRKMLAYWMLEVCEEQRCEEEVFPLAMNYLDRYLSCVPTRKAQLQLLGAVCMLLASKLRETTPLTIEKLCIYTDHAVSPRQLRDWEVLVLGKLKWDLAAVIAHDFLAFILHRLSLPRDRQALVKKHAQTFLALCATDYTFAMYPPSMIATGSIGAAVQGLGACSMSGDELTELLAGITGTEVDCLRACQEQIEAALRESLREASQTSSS
Method in brief: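 Apparent Ki values derive from fitting activity at varied inhibitor concentrations to a competitive (or competitive tight-binding) model. Kinase reactions used 5 nM CDK4/cyclin D3(1-264), Rb fragment substrate and 25 μM ATP. Incubation ran 20 min at 30 °C, extended to 60 min under linear conditions for tight binders.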

CDK2/Cyclin A = CDK2/Cyclin A (Homo sapiens, UniProt P24941); assay: Inhibition of CDK2/Cyclin A Retinoblastoma Kinase Activity; type: biochemical; details: for Ki: apparent Ki, CDK2/proteolyzed cyclin A, Rb fragment substrate, 25 μM ATP
Method in brief: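 Percent inhibition is calculated against DMSO-only wells after subtracting no-enzyme background. The enzyme is human CDK2 complexed with proteolyzed cyclin A, used at 10 nM or 19 nM on an Rb fragment with 25 μM [32/33P]ATP, at pH 7.4 and 30° C.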

[2] = 0.1 μM compound, HCT-116, Table 3
[3] = 0.03 μM compound, Table 2, 0.03 µM
[4] = 0.03 μM compound, Table 4, 0.03 µM

SMILES: CS(=O)(=O)N1CCC(Nc2nc(N)c(C(=O)c3c(F)cccc3F)s2)CC1 [Example F3, 1-[4-Amino-2-(1-methanesulfonyl-piperidin-4-ylamino)-thiazol-5-yl]-1-(2,6-difluoro-phenyl)-methanone]
- IC50 (HCT-116 cell line; first HCT-116 column (c4)): 180 nM
- IC50 (HCT-116 cell line; second HCT-116 column (c5)): 480 nM
- Ki [1]: 5.9 nM
- Ki (CDK2/Cyclin A): 2.9 nM

SMILES: Nc1nc(NC2CCN(S(=O)(=O)c3ccccc3)CC2)sc1C(=O)c1c(F)cccc1F [Example P8]
- HCT-116 % Inhibition at 0.1 μM (HCT-116 cell line; [2]): 37%
- HCT-116 % Inhibition at 0.25 μM (HCT-116 cell line; HCT-116, Table 3): 33%
- CDK4 % Inhibition at 0.03 μM ([1]; 0.03 μM compound, Table 3): 72%
- CDK2 % Inhibition at 0.03 μM (CDK2/Cyclin A; 0.03 μM compound, Table 3): 73%

SMILES: COc1ccc(NC(=O)N2CCC(Nc3nc(N)c(C(=O)c4c(F)cccc4F)s3)CC2)cc1 [Example O21]
- HCT-116 % Inhibition at 0.25 μM (HCT-116 cell line; HCT-116, Table 2, 0.25 µM): 21%
- CDK4 % Inhibition at 0.03 μM [1, 3]: 13%
- CDK2 % Inhibition At 0.03 μM (CDK2/Cyclin A; [3]): 37%

SMILES: Nc1nc(NC2CCN(C(=O)c3ccc4c(c3)OCO4)CC2)sc1C(=O)c1c(F)cccc1F [Example R7]
- HCT-116 % Inhibition at 0.1 μM (HCT-116 cell line; HCT-116 cells, at 0.1 μM): 7%
- HCT-116 5 Inhibition at 0.25 μM (HCT-116 cell line; HCT-116 cells): 46
- CDK4 % Inhibition at 0.03 μM ([1]; at 0.03 μM): 29%
- CDK2 % Inhibition at 0.03 μM (CDK2/Cyclin A; at 0.03 μM): −3%

SMILES: COc1cccc(C(=O)N2CCC(Nc3nc(N)c(C(=O)c4c(F)cccc4F)s3)CC2)c1 [Example R136]
- HCT-116 % Inhibition at 0.1 μM (HCT-116 cell line; HCT-116 cells, at 0.1 μM): 0%
- HCT-116 5 Inhibition at 0.25 μM (HCT-116 cell line; HCT-116 cells): 37
- CDK4 % Inhibition at 0.03 μM ([1]; at 0.03 μM): 45%
- CDK2 % Inhibition at 0.03 μM (CDK2/Cyclin A; at 0.03 μM): 26%

SMILES: Nc1nc(NC2CCN(C(=O)c3cccs3)CC2)sc1C(=O)c1c(F)cccc1F [Example Q61]
- HCT-116 % Inhibition at 0.1 μM (HCT-116 cell line; 0.1 μM compound, HCT-116, Table 4, 0.1 µM): 0%
- HCT-116 % Inhibition at 0.25 μM (HCT-116 cell line; HCT-116, Table 4, 0.25 µM): 34%
- CDK4 % Inhibition at 0.03 μM [1, 4]: 49%
- CDK2 % Inhibition at 0.03 μM (CDK2/Cyclin A; [4]): 41%

SMILES: CN(C)CCCOc1ccc(S(=O)(=O)N2CCC(Nc3nc(N)c(C(=O)c4c(F)cccc4F)s3)CC2)cn1 [Example H15, 1-(4-Amino-2-{1-[6-(3-dimethylamino-propoxy)-pyridine-3-sulfonyl]-piperidin-4-ylamino}-thiazol-5-yl)-1-(2,6-difluoro-phenyl)-methanone Hydrochloride]
- IC50 (HCT-116 cell line; first HCT-116 column (c4)): 71 nM
- IC50 (HCT-116 cell line; second HCT-116 column (c5)): 500 nM
- Ki [1]: 0.34 nM
- Ki (CDK2/Cyclin A): 0.64 nM

SMILES: Nc1nc(NC2CCN(C(=O)c3cccnc3Oc3ccc(Cl)cc3)CC2)sc1C(=O)c1c(F)cccc1F [Example R44]
- HCT-116 % Inhibition at 0.1 μM (HCT-116 cell line; HCT-116 cells, at 0.1 μM): 0%
- HCT-116 5 Inhibition at 0.25 μM (HCT-116 cell line; HCT-116 cells): 41
- CDK4 % Inhibition at 0.03 μM ([1]; at 0.03 μM): 25%
- CDK2 % Inhibition at 0.03 μM (CDK2/Cyclin A; at 0.03 μM): 16%

SMILES: Nc1nc(NC2CCN(S(=O)(=O)c3ccc(Oc4ccncc4)cc3)CC2)sc1C(=O)c1c(F)cccc1F [Example P85]
- HCT-116 % Inhibition at 0.1 μM (HCT-116 cell line; [2]): 12%
- HCT-116 % Inhibition at 0.25 μM (HCT-116 cell line; HCT-116, Table 3): 26%
- CDK4 % Inhibition at 0.03 μM ([1]; 0.03 μM compound, Table 3): 14%
- CDK2 % Inhibition at 0.03 μM (CDK2/Cyclin A; 0.03 μM compound, Table 3): −28%

SMILES: CNc1ccc(C(=O)N2CCC(Nc3nc(N)c(C(=O)c4c(F)cccc4F)s3)CC2)cc1 [Example R147]
- HCT-116 % Inhibition at 0.1 μM (HCT-116 cell line; HCT-116 cells, at 0.1 μM): 0%
- HCT-116 5 Inhibition at 0.25 μM (HCT-116 cell line; HCT-116 cells): 41
- CDK4 % Inhibition at 0.03 μM ([1]; at 0.03 μM): 78%
- CDK2 % Inhibition at 0.03 μM (CDK2/Cyclin A; at 0.03 μM): 63%

SMILES: Nc1nc(NC2CCN(S(=O)(=O)c3cnc(Cl)nc3)CC2)sc1C(=O)c1c(F)cccc1F [Example F47]
- IC50 (HCT-116 cell line; first HCT-116 column (c4)): 900 nM
- IC50 (HCT-116 cell line; second HCT-116 column (c5)): 2300 nM
- Ki [1]: 0.69 nM
- Ki (CDK2/Cyclin A): 0.27 nM

SMILES: Cc1c(S(=O)(=O)c2ccc(Cl)cc2)csc1C(=O)N1CCC(Nc2nc(N)c(C(=O)c3c(F)cccc3F)s2)CC1 [Example R47]
- HCT-116 % Inhibition at 0.1 μM (HCT-116 cell line; HCT-116 cells, at 0.1 μM): 8%
- HCT-116 5 Inhibition at 0.25 μM (HCT-116 cell line; HCT-116 cells): 45
- CDK4 % Inhibition at 0.03 μM ([1]; at 0.03 μM): 20%
- CDK2 % Inhibition at 0.03 μM (CDK2/Cyclin A; at 0.03 μM): −7%

SMILES: CCC(=O)N1CCC(Nc2nc(N)c(C(=O)c3c(F)cccc3F)s2)CC1 [Example R172]
- HCT-116 % Inhibition at 0.1 μM (HCT-116 cell line; HCT-116 cells, at 0.1 μM): 0%
- HCT-116 5 Inhibition at 0.25 μM (HCT-116 cell line; HCT-116 cells): 49
- CDK4 % Inhibition at 0.03 μM ([1]; at 0.03 μM): 49%
- CDK2 % Inhibition at 0.03 μM (CDK2/Cyclin A; at 0.03 μM): 34%
